Consider 1 compound from publication PMC6683035, “Extra Virgin Olive Oil Contains a Phenolic Inhibitor of the Histone Demethylase LSD1/KDM1A” (Nutrients, 2019).

In the test the target is T1, LSD1 (lysine-specific histone demethylase 1A, KDM1A) (Homo sapiens, UniProt O60341).
T1 construct: recombinant human LSD1 (BPS#50103)
The test is described as follows: AlphaScreen demethylase assay with biotinylated histone H3 peptide substrate and purified recombinant LSD1. It counts as biochemical.

A word on the IC50: it is the concentration that inhibits the measured activity by half. In the case of `C/C=C(/C=O)[C@@H](CC=O)CC(=O)OCCc1ccc(O)c(O)c1` [oleacein], the IC50 is roughly 2500 nM.
